B1: Pfu S: commercial product Pyrococcus furiosus protease (Pfu S), SEQ ID NO: 111 (protein, listed as Pyrococcus furiosus)
chain: AELEGLDESAAQVMATYVWNLGYDGSGITIGIIDTGIDASHPDLQGKVIGWVDFVNGRSYPYDDHGHGTHVASIAAGTGAASNGKYKGMAPGAKLAGIKVLGADGSGSISTIIKGVEWAVDNKDKYGIKVINLSLGSSQSSDGTDALSQAVNAAWDAGLVVVVAAGNSGPNKYTIGSPAAASKVITVGAVDKYDVITSFSSRGPTADGRLKPEVVAPGNWIIAARASGTSMGQPINDYYTAAPGTSMATPHVAGIAALLLQAHPSWTPDKVKTALIETADIVKPDEIADIAYGAGRVNAYKAINYDNYAKLVFTGYVANKGSQTHQFVISGASFVTATLYWDNANSDLDLYLYDPNGNQVDYSYTAYYGFEKVGYYNPTDGTWTIKVVSYSGSANYQVDVVSDGSLSQPGSS
B2: PE001: variant of the Penicillium oxalicum glucoamylase of SEQ ID NO: 106 having a K79V substitution (protein, listed as Penicillium oxalicum)
chain: RPDPKGGNLTPFIHKEGERSLQGILDNLGGRGKKTPGTAAGLFIASPNTENPNYYYTWTRDSALTAKCLIDLFEDSRAVFPIDRKYLETGIRDYKSSQAILQSVSNPSGTLKDGSGLGEPKFEIDLNPFSGAWGRPQRDGPALRATAMITYANYLISHGQKSDVSQVMWPIIANDLAYVGQYWNNTGFDLWEEVDGSSFFTIAVQHRALVEGSQLAKKLGKSCDACDSQPPQILCFLQSFWNGKYITSNINTQASRSGIDLDSVLGSIHTFDPEAACDDATFQPCSARALANHKVYVDSFRSIYKINAGLAEGSAANVGRYPEDVYQGGNPWYLATLGASELLYDALYQWDRLGKLEVSETSLSFFKDFDATVKIGSYSRNSKTYKKLTQSIKSYADGFIQLVQQYTPSNGSLAEQYDRNTAAPLSANDLTWSFASFLTATQRRDAVVPPSWGAKSANKVPTTCSASPVVGTYKAPTATFSSKTKCVPAKDIVPITFYLIENTYYGENVFMSGNITALGNWDAKKGFPLTANLYTQDQNLWFASVEFIPAGTPFEYKYYKVEPNGDITWEKGPNRVFVAPTGCPVQPHSNDVWQF

What was measured:
multi-strain LAB culture = assay: SSF of control mash with 1% w/w infected mash, AA13 candidates, HPLC of organic acids and ethanol (Example 3); format: cell-based; conditions: SSF 32° C. up to 24 hours, 20% DS; for % delta Ethanol / % delta Lactic Acid: vs No Treatment
Method: A control mash was prepared in-house with an industry relevant blend of AA369 and Protease Pfu using a Lab-O-Mat incubator for 2 hours at 85° C. and 36% DS to simulate typical industry conditions. The mash was then frozen prior to use in SSF. An infected mash was prepared by infecting the control mash with a multi-strain LAB culture grown in MRS. The bacteria in control mash was incubated overnight, and then frozen with 20% glycerol. For this experiment, 1% weight/weight of the infected mash was mixed into the control mash. This mimics an infection event at a large-scale ethanol facility. For SSF, all mash was prepared with 1000 ppm of urea to aid with yeast fermentation. All treatments were dosed with a baseline commercial glucoamylase GSA, while AA13 candidates were dosed at either 10 ug/g-DS or 50 ug/g-DS. SSF was performed at 5 g scale with 10 uL/g rehydrated Ethanol Red yeast at 32° C. for up to 24 hours at 20% DS. At the end of fermentation, samples were deactivated with 50 uL of 40% sulfuric acid and then centrifuged. The supernatant was filtered through a 0.2 μm filter and then measured for soluble carbohydrates and organic acids using an ion-exchange H-column on HPLC.

[1] = pH 4.5; cited from earlier work
[2] = relative to the parent Penicillium oxalicum glucoamylase; cited from earlier work

Molecule | average Ethanol (multi-strain LAB culture; AA13 dose 10 ug/g-DS) [g/L] | average Lactic Acid (multi-strain LAB culture; AA13 dose 10 ug/g-DS) [g/L] | % delta Ethanol (multi-strain LAB culture; AA13 dose 10 ug/g-DS) [%] | % delta Lactic Acid (multi-strain LAB culture; AA13 dose 10 ug/g-DS) [%] | average Ethanol (multi-strain LAB culture; AA13 dose 50 ug/g-DS) [g/L] | average Lactic Acid (multi-strain LAB culture; AA13 dose 50 ug/g-DS) [g/L] | % delta Ethanol (multi-strain LAB culture; AA13 dose 50 ug/g-DS) [%] | % delta Lactic Acid (multi-strain LAB culture; AA13 dose 50 ug/g-DS) [%] | average Ethanol (multi-strain LAB culture; Penicillin dose 25 ppm) [g/L] | average Lactic Acid (multi-strain LAB culture; Penicillin dose 25 ppm) [g/L] | % delta Ethanol (multi-strain LAB culture; Penicillin dose 25 ppm) [%] | % delta Lactic Acid (multi-strain LAB culture; Penicillin dose 25 ppm) [%] | thermostability (Relative Activity 80° C./70° C.) [1] [%] | thermostability (Relative Activity 90° C./70° C.) [1] [%] | sensitivity to protease degradation [2]
Penicillium sclerotiorum: Penicillium sclerotiorum AA13 polypeptide of SEQ ID NO: 141 | 76.4 | 3.5 | −1.6 | 6.9 | 78.1 | 3.3 | 0.6 | −0.9 | – | – | – | – | – | – | –
Acrostalagmus luteoalbus: Acrostalagmus luteoalbus AA13 polypeptide of SEQ ID NO: 129 | 78.9 | 3.0 | 1.7 | −10.9 | 80.0 | 2.9 | 3.0 | −13.2 | – | – | – | – | – | – | –
Aspergillus insuetus: Aspergillus insuetus AA13 polypeptide of SEQ ID NO: 130 | 76.7 | 3.4 | −1.2 | 1.7 | 77.2 | 3.4 | −0.6 | 2.1 | – | – | – | – | – | – | –
Penicillium roseopurpureum: Penicillium roseopurpureum AA13 polypeptide of SEQ ID NO: 139 | 78.0 | 3.3 | 0.5 | −1.3 | 78.1 | 3.3 | 0.6 | −1.8 | – | – | – | – | – | – | –
Penicillium hoeksii: Penicillium hoeksii AA13 polypeptide of SEQ ID NO: 137 | 78.1 | 3.2 | 0.6 | −2.8 | 79.1 | 3.2 | 1.9 | −4.8 | – | – | – | – | – | – | –
Penicillium antarcticum: Penicillium antarcticum AA13 polypeptide of SEQ ID NO: 135 | 76.4 | 3.4 | −1.6 | 2.2 | 76.2 | 3.4 | −1.8 | 3.0 | – | – | – | – | – | – | –
Penicillium concentricum: Penicillium concentricum AA13 polypeptide of SEQ ID NO: 136 | 78.1 | 3.3 | 0.6 | −0.6 | 78.2 | 3.2 | 0.7 | −3.2 | – | – | – | – | – | – | –
Penicillium steckii: Penicillium steckii AA13 polypeptide of SEQ ID NO: 145 | 76.6 | 3.5 | −1.4 | 4.5 | 77.3 | 3.3 | −0.4 | −1.0 | – | – | – | – | – | – | –
Penicillin [reference compound] | – | – | – | – | – | – | – | – | 80.1 | 1.2 | 3.1 | −62.4 | – | – | –
Penicillium paxilli: Penicillium paxiffi AA13 polypeptide of SEQ ID NO: 138 | 77.8 | 3.2 | 0.2 | −4.9 | 78.1 | 3.1 | 0.5 | −5.7 | – | – | – | – | – | – | –
Cladosporium gossypiicola: Cladosporium gossypiicola AA13 polypeptide of SEQ ID NO: 131 | 77.5 | 3.3 | −0.2 | −1.8 | 78.5 | 3.2 | 1.1 | −4.6 | – | – | – | – | – | – | –
Penicillium samsonianum: Penicillium samsonianum AA13 polypeptide of SEQ ID NO: 140 | 77.1 | 3.4 | −0.6 | 2.2 | 77.4 | 3.4 | −0.4 | 2.0 | – | – | – | – | – | – | –
Penicillium vulpinum: Penicillium vulpinum AA13 polypeptide of SEQ ID NO: 147 | 79.0 | 3.2 | 1.7 | −2.9 | 78.3 | 3.5 | 0.9 | 4.6 | – | – | – | – | – | – | –
Penicillium viticola: Penicillium viticola AA13 polypeptide of SEQ ID NO: 146 | 76.6 | 3.4 | −1.3 | 2.2 | 77.8 | 3.4 | 0.2 | 2.8 | – | – | – | – | – | – | –
B1 | – | – | – | – | – | – | – | – | – | – | – | – | 110 | 103 | –
B2 | – | – | – | – | – | – | – | – | – | – | – | – | – | – | reduced sensitivity to protease degradation relative to the parent

From patent US11795481B2, “Processes for producing a fermentation product” (Novozymes A/S, priority 2017, dated 2023)
